Several values for one entry are separate records, joined by “and”; a condition that tells them apart may be missing. Equal values may be shown once. Entries after “also recorded” stand apart in the source; their conditions may differ. Read-outs that look alike come from different tables or passages of the source. Each block holds one molecule with its values, some of them ahead of it.
Assays:
[1] = biological target: T1, GRK5 (Homo sapiens, UniProt P34947); experiment: radiometric GRK5 inhibition assay (tubulin phosphorylation); conditions: for IC50: read-out: GRK5 IC50
Target sequence in this assay (P34947 whole entry): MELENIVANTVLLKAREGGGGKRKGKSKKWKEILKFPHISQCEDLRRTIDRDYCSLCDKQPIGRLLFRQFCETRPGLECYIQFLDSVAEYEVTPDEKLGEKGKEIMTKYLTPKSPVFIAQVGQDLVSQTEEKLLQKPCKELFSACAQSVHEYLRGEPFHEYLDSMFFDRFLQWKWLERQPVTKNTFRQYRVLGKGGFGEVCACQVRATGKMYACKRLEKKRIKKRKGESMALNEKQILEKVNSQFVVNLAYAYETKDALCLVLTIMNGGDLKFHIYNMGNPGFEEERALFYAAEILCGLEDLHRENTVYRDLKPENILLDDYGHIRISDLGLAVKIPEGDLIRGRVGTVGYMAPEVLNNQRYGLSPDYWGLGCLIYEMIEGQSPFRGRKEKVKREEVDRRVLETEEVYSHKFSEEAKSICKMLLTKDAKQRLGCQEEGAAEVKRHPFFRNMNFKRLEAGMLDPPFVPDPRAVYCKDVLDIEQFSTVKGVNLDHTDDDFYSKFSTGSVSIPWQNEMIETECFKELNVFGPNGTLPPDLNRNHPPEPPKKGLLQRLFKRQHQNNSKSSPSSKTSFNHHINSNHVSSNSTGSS

[2] = biological target: GRK5 (Cys474) (Homo sapiens, UniProt P34947); experiment: Intact protein MS, covalent labelling of GRK5; format: binding
Chain of GRK5 (Cys474) (P34947 whole entry): as above

[3] = biological target: T2, bovine GRK2 (Bos taurus, UniProt P21146); experiment: radiometric GRK2 inhibition assay (tubulin phosphorylation)
T2 sequence (P21146 1-689): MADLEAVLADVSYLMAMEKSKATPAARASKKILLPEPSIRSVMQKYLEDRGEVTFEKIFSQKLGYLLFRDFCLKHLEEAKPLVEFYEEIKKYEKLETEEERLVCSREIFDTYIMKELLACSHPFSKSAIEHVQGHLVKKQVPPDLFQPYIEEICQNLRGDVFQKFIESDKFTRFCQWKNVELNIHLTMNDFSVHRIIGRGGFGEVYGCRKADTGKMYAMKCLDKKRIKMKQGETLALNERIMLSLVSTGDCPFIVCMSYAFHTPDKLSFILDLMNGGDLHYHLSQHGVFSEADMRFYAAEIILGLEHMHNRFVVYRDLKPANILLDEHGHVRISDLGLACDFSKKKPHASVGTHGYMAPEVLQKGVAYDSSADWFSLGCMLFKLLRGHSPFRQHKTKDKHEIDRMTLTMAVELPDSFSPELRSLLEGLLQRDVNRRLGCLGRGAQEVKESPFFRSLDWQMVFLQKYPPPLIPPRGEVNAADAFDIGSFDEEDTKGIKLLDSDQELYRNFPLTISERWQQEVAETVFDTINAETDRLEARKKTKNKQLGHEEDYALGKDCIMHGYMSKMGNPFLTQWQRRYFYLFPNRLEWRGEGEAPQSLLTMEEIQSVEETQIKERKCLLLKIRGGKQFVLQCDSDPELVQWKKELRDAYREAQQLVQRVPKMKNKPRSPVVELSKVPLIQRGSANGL

[4] = tested on: FGFR1/2; experiment: Kinome panel, FGFR1/2; format: biochemical; conditions: tested at 1 μM
[5] = biological target: EGFR (Homo sapiens, UniProt P00533); experiment: Kinome panel, EGFR; format: biochemical; conditions: tested at 1 μM
Chain of EGFR (P00533 25-1210, species assumed): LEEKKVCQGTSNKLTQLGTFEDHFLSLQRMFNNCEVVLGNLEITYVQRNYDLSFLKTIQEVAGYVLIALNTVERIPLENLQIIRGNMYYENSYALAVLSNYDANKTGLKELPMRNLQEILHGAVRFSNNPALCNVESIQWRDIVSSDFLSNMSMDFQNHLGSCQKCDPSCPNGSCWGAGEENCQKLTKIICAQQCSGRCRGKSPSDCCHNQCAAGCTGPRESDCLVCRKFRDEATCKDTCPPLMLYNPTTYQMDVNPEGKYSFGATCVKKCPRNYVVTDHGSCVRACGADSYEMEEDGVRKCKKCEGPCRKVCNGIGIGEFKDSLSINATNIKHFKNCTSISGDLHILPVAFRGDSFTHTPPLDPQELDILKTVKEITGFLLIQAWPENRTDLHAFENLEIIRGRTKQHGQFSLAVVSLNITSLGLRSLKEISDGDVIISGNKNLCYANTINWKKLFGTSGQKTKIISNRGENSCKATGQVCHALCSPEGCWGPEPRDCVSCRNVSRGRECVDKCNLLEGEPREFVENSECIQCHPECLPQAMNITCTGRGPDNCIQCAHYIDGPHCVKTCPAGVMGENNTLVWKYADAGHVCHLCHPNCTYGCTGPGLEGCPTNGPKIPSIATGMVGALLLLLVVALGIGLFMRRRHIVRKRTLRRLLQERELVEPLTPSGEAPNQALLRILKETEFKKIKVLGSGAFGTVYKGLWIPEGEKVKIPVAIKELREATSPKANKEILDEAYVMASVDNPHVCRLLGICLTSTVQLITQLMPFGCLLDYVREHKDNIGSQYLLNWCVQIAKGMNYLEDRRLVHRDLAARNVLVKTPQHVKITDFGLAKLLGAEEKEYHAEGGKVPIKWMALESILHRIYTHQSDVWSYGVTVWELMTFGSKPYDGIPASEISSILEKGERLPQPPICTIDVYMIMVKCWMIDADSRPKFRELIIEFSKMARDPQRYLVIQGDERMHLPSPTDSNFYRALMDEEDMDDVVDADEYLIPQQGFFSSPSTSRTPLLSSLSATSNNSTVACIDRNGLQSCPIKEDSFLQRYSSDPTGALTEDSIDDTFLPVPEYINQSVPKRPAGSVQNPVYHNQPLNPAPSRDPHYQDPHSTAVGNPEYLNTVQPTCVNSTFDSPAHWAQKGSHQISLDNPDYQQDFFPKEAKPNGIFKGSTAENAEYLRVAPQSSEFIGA

[6] = biological target: GRK6 (Homo sapiens, UniProt P43250); experiment: Kinome panel, GRK6; format: biochemical; conditions: tested at 1 μM
Chain of GRK6 (P43250 whole entry, species assumed): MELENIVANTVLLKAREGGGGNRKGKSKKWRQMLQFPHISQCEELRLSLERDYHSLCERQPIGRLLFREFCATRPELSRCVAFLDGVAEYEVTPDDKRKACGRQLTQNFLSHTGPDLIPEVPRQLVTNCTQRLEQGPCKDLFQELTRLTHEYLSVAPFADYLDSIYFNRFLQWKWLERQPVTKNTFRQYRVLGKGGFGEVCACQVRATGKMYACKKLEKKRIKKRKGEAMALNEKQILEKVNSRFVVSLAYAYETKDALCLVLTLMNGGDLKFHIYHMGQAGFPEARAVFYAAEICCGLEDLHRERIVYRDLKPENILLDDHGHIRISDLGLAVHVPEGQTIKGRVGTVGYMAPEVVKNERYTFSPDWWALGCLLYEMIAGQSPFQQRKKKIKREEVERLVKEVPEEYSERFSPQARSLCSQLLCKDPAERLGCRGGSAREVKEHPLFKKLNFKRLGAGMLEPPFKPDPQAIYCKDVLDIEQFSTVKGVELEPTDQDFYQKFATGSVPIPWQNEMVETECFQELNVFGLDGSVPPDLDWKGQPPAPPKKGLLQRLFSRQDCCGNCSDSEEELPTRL

[7] = tested on: PDGFR; experiment: Kinome panel, PDGFR; format: biochemical; conditions: tested at 1 μM
[8] = biological target: PKA (Homo sapiens, UniProt P17612); experiment: PKA inhibition assay (ADP-Glo); format: biochemical
Method: The PKA inhibition assays were performed with the ADP-Glo system (Promega Corporation) according to the manufactory's instruction. […] After the initial reaction, ADP-Glo reagent was added to the reaction and allowed to incubate for an additional 40 min. Lastly, the kinase detection reagent was added and allowed to incubate for 30 min, and the luminescence was measured with a FlexStation 3 Multi-mode Microplate Reader (Molecular Devices). All data was analyzed in the same way as GRK inhibition assay. Experiments were performed three times in duplicate.
Standard control compounds are run during each assay to assess consistency across time, experimenters, and subtle changes in assay conditions that are sometimes required to keep some of the compounds soluble and disperse (such as through addition of DDM or 3% DMSO). Paroxetine were used as controls for GRK2 and PKA, and CCG215022 for GRK5.

[9] = Metabolic stability in human liver microsomes; format: in vitro ADME; conditions: 4-fluoro pendant added to phenyl ring
[10] = Thermodynamic solubility (Analiza Inc.); format: physicochemical; conditions: Water
Description: Experimental data collected by Analiza Inc. Experimental values represent an average of n=1 experiments.

[11] = biological target: T1, GRK5; experiment: Kinome panel, GRK5; format: biochemical; conditions: tested at 1 μM
Target sequence in this assay (P34947 whole entry, species assumed): as the sequence (P34947 whole entry) above

[12] = biological target: KIT (Homo sapiens, UniProt P10721); experiment: Kinome panel, KIT; format: biochemical; conditions: tested at 1 μM
Chain of KIT (P10721 26-976, species assumed): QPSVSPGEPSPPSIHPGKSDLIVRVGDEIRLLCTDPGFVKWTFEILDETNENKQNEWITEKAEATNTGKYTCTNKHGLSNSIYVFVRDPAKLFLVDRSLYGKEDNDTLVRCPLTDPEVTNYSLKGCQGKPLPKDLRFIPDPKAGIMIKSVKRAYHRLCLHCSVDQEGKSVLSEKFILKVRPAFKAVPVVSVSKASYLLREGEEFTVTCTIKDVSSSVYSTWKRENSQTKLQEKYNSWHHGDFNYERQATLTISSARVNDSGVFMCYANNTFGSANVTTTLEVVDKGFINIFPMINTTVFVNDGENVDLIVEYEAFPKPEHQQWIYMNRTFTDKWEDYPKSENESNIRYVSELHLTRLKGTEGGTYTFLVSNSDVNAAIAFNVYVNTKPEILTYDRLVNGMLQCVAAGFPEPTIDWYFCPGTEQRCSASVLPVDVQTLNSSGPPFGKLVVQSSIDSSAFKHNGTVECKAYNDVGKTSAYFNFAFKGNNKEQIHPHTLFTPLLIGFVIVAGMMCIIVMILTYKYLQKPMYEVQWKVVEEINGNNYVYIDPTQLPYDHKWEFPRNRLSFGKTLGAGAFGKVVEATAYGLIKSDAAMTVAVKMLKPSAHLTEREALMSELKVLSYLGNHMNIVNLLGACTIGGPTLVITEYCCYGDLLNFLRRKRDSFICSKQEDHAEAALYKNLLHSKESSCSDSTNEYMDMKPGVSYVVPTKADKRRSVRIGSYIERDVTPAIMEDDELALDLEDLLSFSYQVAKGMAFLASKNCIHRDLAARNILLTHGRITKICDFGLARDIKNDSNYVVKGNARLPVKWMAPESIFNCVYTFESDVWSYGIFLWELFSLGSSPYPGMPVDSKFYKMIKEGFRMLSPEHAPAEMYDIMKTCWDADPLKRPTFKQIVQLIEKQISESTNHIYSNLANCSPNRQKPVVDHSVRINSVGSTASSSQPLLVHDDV

[13] = tested on: kinome; experiment: Kinome-wide selectivity panel; format: biochemical; conditions: tested at 10 nM, in relation to 100 nM and 1 μM panels
[14] = read-out: GRK2 IC50, Table 1, μM ± SD
[15] = intact protein MS, 30 min incubation
[16] = intact protein MS, incubation time not stated
[17] = read-out: GRK2 IC50, Table 2, μM ± SD

- GRK2/GRK5 ([1]; Table 2, ratio of IC50 values): 15
- covalent labelling of GRK5 ([2]; intact MS, overnight / 8 hours): partial labelling
- IC50 [3]: 190 ± 70 µM
Structure (SMILES): Cc1[nH]c(/C=C2\C(=O)Nc3ccc(C(=O)N[C@@H](c4ccccc4)C(C)C)cc32)c(C)c1NC(=O)CCl [Compound 9r, (R,Z)-3-((4-(2-chloroacetamido)-3,5-dimethyl-1H-pyrrol-2-yl)methylene)-N-(2-methyl-1-phenylpropyl)-2-oxoindoline-5-carboxamide]

- inhibition at 1 µM [5]: 17%
- inhibition at 1 µM [6]: 94%
- IC50 [3, 14]: 44 ± 40 µM
Structure (SMILES): C#CCNC(=O)c1c(C)[nH]c(/C=C2\C(=O)Nc3ccc(C(=O)N[C@H](C)c4ccccc4)cc32)c1C [Compound 5c, (R,Z)-3-((3,5-dimethyl-4-(prop-2-yn-1-ylcarbamoyl)-1H-pyrrol-2-yl)methylene)-2-oxo-N-(1-phenylethyl)indoline-5-carboxamide]
- inhibition of FGFR1/2 [4]: 92-98%
- inhibition of PDGFR [7]: 99-100%

Structure (SMILES): Cc1[nH]c(/C=C2\C(=O)Nc3ccc(C(=O)N[C@H](C)c4ccc(F)cc4)cc32)c(C)c1NC(=O)CCl [Compound 9j, (R,Z)-3-((4-(2-chloroacetamido)-3,5-dimethyl-1H-pyrrol-2-yl)methylene)-N-(1-(4-fluorophenyl)ethyl)-2-oxoindoline-5-carboxamide]
- IC50 ([8]; Table 2, μM ± SD): > 250 µM
- covalent labelling of GRK5 [2, 15]: form a covalent interaction with Cys474; also recorded: fully labels GRK5
- covalent labelling of GRK5 [2, 16]: able to form a covalent interaction
- IC50 [3, 17]: 4.8 ± 3 µM
- increase of stability in HLMs [9]: 1.4 fold
- pH After Assay ([10]; solubility assay): 3
- solubility thermodynamic ([10]; thermodynamic from solid, n=1): 90.7 µM and 44.8 µg/mL

- GRK2/GRK5 ([1]; Table 2, ratio of IC50 values): 260
- IC50 ([8]; Table 2, μM ± SD): > 250 µM
- covalent labelling of GRK5 ([2]; intact MS, overnight / 8 hours): completes labelling of GRK5
Structure (SMILES): Cc1[nH]c(/C=C2\C(=O)Nc3ccc(C(=O)NC(C)(C)c4ccccc4)cc32)c(C)c1NC(=O)CCl [Compound 9s, (Z)-3-((4-(2-chloroacetamido)-3,5-dimethyl-1H-pyrrol-2-yl)methylene)-2-oxo-N-(2-phenylpropan-2-yl)indoline-5-carboxamide]

- IC50 ([8]; Table 2, μM ± SD): > 250 µM
- covalent labelling of GRK5 ([2]; intact MS, overnight / 8 hours): partial labelling
- IC50 [3, 17]: 13 ± 3 µM
Structure (SMILES): Cc1[nH]c(/C=C2\C(=O)Nc3ccc(C(=O)NCc4ccccc4)cc32)c(C)c1NC(=O)CCl [Compound 9q, (Z)—N-benzyl-3-((4-(2-chloroacetamido)-3,5-dimethyl-1H-pyrrol-2-yl)methylene)-2-oxoindoline-5-carboxamide]

- selectivity for GRK5 over GRK2 [1]: 1400 fold
- GRK2/GRK5 ([1]; Table 1, ratio of IC50 values): 1400
- IC50 [1]: 0.0086 µM
- inhibition at 1 µM [5]: 17%
- inhibition at 1 µM [6]: 97%
- IC50 ([8]; Table 1, μM ± SD): > 250 µM
- inhibition at 1 µM [11]: 93%
- fraction of GRK5 labelled [2, 15]: 50%
- IC50 [3, 14]: 12 ± 20 µM
- inhibition at 1 µM [12]: 84%
Structure (SMILES): Cc1[nH]c(/C=C2\C(=O)Nc3ccc(C(=O)N[C@H](C)c4ccccc4)cc32)c(C)c1NC(=O)CBr [Compound 9g, (R,Z)-3-((4-(2-bromoacetamido)-3,5-dimethyl-1H-pyrrol-2-yl)methylene)-2-oxo-N-(1-phenylethyl)indoline-5-carboxamide]
- inhibition of FGFR1/2 [4]: 94-98%
- inhibition of PDGFR [7]: 99%
- covalent labelling of GRK5 [2, 16]: able to label GRK5 at Cys474; also recorded: able to form a covalent interaction
- kinome-wide selectivity [13]: far more selective across the kinome

- potency / affinity against GRK5 in words [1]: low μM potency
- GRK2/GRK5 ([1]; Table 1, ratio of IC50 values): 61
- IC50 ([1]; Table 1, μM ± SD): 2.5 ± 0.8 µM
- covalent labelling of GRK5 [2, 16]: did not show any covalent engagement
- IC50 [3, 14]: 150 ± 30 µM
Structure (SMILES): CC#CC(=O)Nc1c(C)[nH]c(/C=C2\C(=O)Nc3ccc(C(=O)N[C@H](C)c4ccccc4)cc32)c1C [Compound 9a, (R,Z)-3-((4-(but-2-ynamido)-3,5-dimethyl-1H-pyrrol-2-yl)methylene)-2-oxo-N-(1-phenylethyl)indoline-5-carboxamide]

Source: patent US20230212120A1, “SMALL MOLECULE INHIBITORS OF GRK5 AND GRK5 SUBFAMILY MEMBERS AND USES THEREOF” (The Regents of the University of Michigan, priority 2020, published 2023)
